# Counter-ions that a name gives are not always drawn.
# Assays:
# [1] = Cytotoxic concentration was determined; format: functional
# [2] = Effective dose for inhibition of viral replication in cell culture […]; format: functional; conditions: read-out: ED50 (the source's name)
# [3] = test system: Human immunodeficiency virus type 1 reverse transcriptase (Human immunodeficiency virus 1), Q72547 [P236L]; assay: In vitro inhibition of mutant P236L reverse transcriptase at a concentration of 1 uM.
# [4] = target: Human immunodeficiency virus type 1 reverse transcriptase (Human immunodeficiency virus 1) (UniProt Q72547); assay: In vitro inhibition of wild type resistant reverse transcriptase at a concentration of 10 uM.
# [5] = test system: Human immunodeficiency virus type 1 reverse transcriptase (Human immunodeficiency virus 1), Q72547 [P236L]; assay: In vitro Inhibition of mutant P236L reverse transcriptase at a concentration of 50 uM.
# [6] = test system: Human immunodeficiency virus type 1 reverse transcriptase (Human immunodeficiency virus 1), Q72547 [P236L]; assay: In vitro inhibition of mutant P236L reverse transcriptase at a concentration of 10 uM.
# [7] = target: Human immunodeficiency virus type 1 reverse transcriptase (Human immunodeficiency virus 1) (UniProt Q72547); assay: In vitro inhibition of wild type resistant reverse transcriptase at a concentration of 1 uM.
# [8] = target: Human immunodeficiency virus type 1 reverse transcriptase (Human immunodeficiency virus 1) (UniProt Q72547); assay: In vitro inhibition of wild type resistant reverse transcriptase at a concentration of 50 uM.
# [9] = target: Human immunodeficiency virus type 1 reverse transcriptase (Human immunodeficiency virus 1, UniProt Q72547, P236L); assay: In vitro ability to inhibit mutant P236L reverse transcriptase
# [10] = target: Human immunodeficiency virus type 1 reverse transcriptase (Human immunodeficiency virus 1, UniProt Q72547); assay: In vitro ability to inhibit wild type resistant (WT) reverse transcriptase
Compound,CC50 [1],EC50 [2],inhibition [3],inhibition [4],inhibition [5],inhibition [6],inhibition [7],inhibition [8],IC50 [9],IC50 [10]
CCc1cc(NCc2nc3c(Cl)ccc(Cl)c3o2)c(O)nc1C [L-697661],> 10000 nM,< 0.1 nM,–,–,–,–,–,–,–,–
CCCc1c(C)nn(-c2ccccc2)c1-c1ccccc1,–,–,4%,31%,71%,56%,14%,49%,–,–
CNC(=O)c1c(C)nn(-c2ccccc2)c1-c1ccccc1,–,–,15%,7%,0%,0%,5%,3%,–,–
CCc1c(CC(=O)OC)nn(-c2ccccc2)c1-c1ccccc1,–,–,21%,20%,55%,41%,5%,34%,–,–
CCc1c(CCO)nn(-c2ccccc2)c1-c1ccccc1,–,–,58%,18%,95%,84%,0%,42%,650 nM,> 50000 nM
CCc1c(CC(N)=O)nn(-c2ccccc2)c1-c1ccccc1,–,–,16%,18%,52%,29%,12%,39%,–,–
Cc1nn(-c2ccccc2)c(-c2ccccc2)c1C,–,–,0%,0%,36%,3%,0%,0%,–,–
Cc1ccnc2c1NC(=O)c1cccnc1N2C1CC1 [NEVIRAPINE],> 10000 nM,10 nM,–,–,–,–,–,–,–,–
Cc1nn(-c2ccccc2)c(-c2ccccc2)c1CC(N)=O,–,–,0%,36%,29%,0%,11%,48%,–,–
CCc1c(CC(=O)O)nn(-c2ccccc2)c1-c1ccccc1,–,–,0%,0%,14%,13%,0%,0%,–,–
CCc1c(C)nn(-c2ccccc2)c1-c1ccccc1,–,–,50%,42%,94%,81%,1%,67%,520 nM,14500 nM
COCc1c(C)nn(-c2ccccc2)c1-c1ccccc1,–,–,0%,0%,50%,18%,0%,14%,–,–
CC(C)Nc1cccnc1N1CCN(C(=O)c2cc3cc(NS(C)(=O)=O)ccc3[nH]2)CC1 [DELAVIRDINE MESYLATE],> 10000 nM,0.1 nM,–,–,–,–,–,–,–,–
Cc1nn(-c2ccccc2)c(-c2ccccc2)c1CCO,–,–,12%,0%,28%,8%,0%,0%,–,–
CC#Cc1c(C)nn(-c2ccccc2)c1-c1ccccc1,–,–,38%,37%,93%,80%,0%,72%,1540 nM,13400 nM
CCc1c(CC#N)nn(-c2ccccc2)c1-c1ccccc1,–,–,14%,15%,72%,46%,2%,39%,–,–
C/N=C(/S)c1c(C)nn(-c2ccccc2)c1-c1ccccc1,–,–,0%,0%,0%,0%,0%,0%,–,–
CCc1c(CCOC)nn(-c2ccccc2)c1-c1ccccc1,–,–,15%,29%,71%,47%,22%,33%,–,–
Cc1nn(-c2ccccc2)c(-c2ccccc2)c1CC#N,> 10000 nM,100 nM,47%,71%,93%,77%,37%,90%,1140 nM,2310 nM
CCc1c(CC(=O)NC)nn(-c2ccccc2)c1-c1ccccc1,–,–,6%,3%,12%,8%,1%,7%,–,–
Cc1nn(-c2ccccc2)c(-c2ccccc2)c1C(=O)O,–,–,0%,0%,4%,1%,4%,1%,–,–
Cc1nn(-c2ccccc2)c(-c2ccccc2)c1CC(=O)O,–,–,0%,0%,0%,0%,0%,3%,–,–
C=Cc1c(C)nn(-c2ccccc2)c1-c1ccccc1,–,–,21%,10%,59%,26%,3.6%,18%,–,–
Cc1nn(-c2ccccc2)c(-c2ccccc2)c1C(C)C,–,–,0%,18%,13%,8%,0%,6%,–,–

# — ChEMBL document CHEMBL1133713, “Novel 1,5-diphenylpyrazole nonnucleoside HIV-1 reverse transcriptase inhibitors with enhanced activity versus the delavirdine-resistant P236L mutant: lead identification and SAR of 3- and 4-substituted derivatives” (J Med Chem, 2000)
